Measurements as given in US8932597B2 (priority 2008, dated 2015).

Key:
HuM2e antibody 23K12 = type: binding, human
[1] = test system: anti-M2 human monoclonal antibody Z3G1; type: binding

Substance	Signal (peptides that bind to 23K21 and 8I10) (HuM2e antibody 23K12)	Signal (peptides that show specific binding to Z3G1) [1]	Signal (peptides that bind to Z3G1) [1]
336 (SLLCEVGSLLTEV; epitope peptide) [compound 336]	1674	2475	–
600 (SLLTEVETPIRNEWGLRCNDSSD; epitope peptide) [compound 600]	831	2389	–
292 (CSLLTEVGSLLTEC; epitope peptide) [compound 292]	2094	2213	–
588 (SLLTEVETPIRNEWGCRCNCSSD; epitope peptide) [compound 588]	848	–	2505
161 (CPIRNEWGSRSNDSSDCSLLTEVETC; epitope peptide) [compound 161]	1206	2759	–
311 (SLLTEVGCLLTEV; epitope peptide) [compound 311]	1859	1924	–
599 (SLLTEVERPIRNEWGCRCNDSSD; epitope peptide) [compound 599]	834	2131	–
622 (SLLTEVETPIRMEWGCRCNDSSD; epitope peptide) [compound 622]	805	2385	–
639 (SLLTEVETPIRNEWGCFCNDSSD; epitope peptide) [compound 639]	767	2312	–
570 (MCLLTEVGCSLLTEV; epitope peptide) [compound 570]	875	–	2717
585 (SLLTEVETPIRLEWGCRCNDSSD; epitope peptide) [compound 585]	853	2468	–
718 (SLLTEVECPIRNEWGCRCNDSSD; epitope peptide) [compound 718]	700	1974	–
410 (SLLTEVETPIRNEWGCRCNDLSD; epitope peptide) [compound 410]	769	–	2494
285 (MSLLTEVGMSLLTCV; epitope peptide) [compound 285]	2389	–	2872
618 (SLLTEVETPIRNEWGCRCLDSSD; epitope peptide) [compound 618]	807	–	2480
296 (MSLLTEVGMCLLTEV; epitope peptide) [compound 296]	2023	–	2809
334 (CSLLTEVGMSLCTEV; epitope peptide) [compound 334]	1682	–	2857
678 (SLLTEVETPIRSEWGCRCNDSSD; epitope peptide) [compound 678]	730	2322	–
488 (SLLTEVETPIHNEWGCRCNDSSD; epitope peptide) [compound 488]	1112	2121	–

Substance	Signal (peptides that bind to 23K21 and 8I10) (HuM2e antibody 23K12)	Signal (peptides that show specific binding to Z3G1) [1]	Signal (peptides that bind to Z3G1) [1]
353 (SLLTEVGCSLLTEC; epitope peptide) [compound 353]	1556	2380	–
612 (SLLTEVETPIRNEWGCRCIDSSD; epitope peptide) [compound 612]	812	–	2450
647 (SLLTEVETPIRNEWGHRCNDSSD; epitope peptide) [compound 647]	763	2113	–
675 (SLLTEVNTPIRNEWGCRCNDSSD; epitope peptide) [compound 675]	732	2150	–
631 (SLLTEVETPIRKEWGCRCNDSSD; epitope peptide) [compound 631]	782	2437	–
560 (SLLTEVETPIRNEWGCRCFDSSD; epitope peptide) [compound 560]	894	–	2538
288 (CSCLCEVGMSLLTEV; epitope peptide) [compound 288]	2154	–	1812
508 (MSLCTEVGCSLLTEV; epitope peptide) [compound 508]	1049	–	2832
648 (SLLTEVETPIRNEWGKRCNDSSD; epitope peptide) [compound 648]	762	2295	–
406 (SLLTEVETPIRNEWGCRCNDFSD; epitope peptide) [compound 406]	788	–	2395
302 (ASLLTEVGSCLTEV; epitope sequence) [compound 302]	1944	2770	–
519 (SLLTEVETPIRNEWGCRSNDSSD; epitope peptide) [compound 519]	1016	2344	–
504 (SLLTEVETPIRNEWGFRCNDSSD; epitope peptide) [compound 504]	1057	2349	–
522 (SLLTMVETPIRNEWGCRCNDSSD; epitope peptide) [compound 522]	1011	1244	–
363 (MSLLTECGCSLLTEV; epitope peptide) [compound 363]	1500	–	1235
360 (CSLLTECGCSLLTEV; epitope peptide) [compound 360]	1534	–	1427
370 (SLLTEVETPIRNEWGERCNDSSD; epitope peptide) [compound 370]	1474	2286	–
501 (SLLTEVETPIRNEWGCCCNDSSD; epitope peptide) [compound 501]	1065	2515	–
682 (SLLTEVETPIRNEWGSRCNDSSD; epitope peptide) [compound 682]	729	2346	–

Substance	Signal (peptides that bind to 23K21 and 8I10) (HuM2e antibody 23K12)	Signal (peptides that show specific binding to Z3G1) [1]	Signal (peptides that bind to Z3G1) [1]
397 (SLLTEVETPIRNEWGCRCNQSSD; epitope peptide) [compound 397]	842	–	2376
318 (SLLTEVETPIRNEWGCRCKDSSD; epitope peptide) [compound 318]	1802	–	2549
445 (SLLTEVETPIRNEWGCRCN; epitope peptide) [compound 445]	977	–	2506
652 (SLLTEVEEPIRNEWGCRCNDSSD; epitope peptide) [compound 652]	757	2362	–
661 (SLLTEVETPIRQEWGCRCNDSSD; epitope peptide) [compound 661]	748	2367	–
453 (SLLTEVETPIRNEAGCRCNDSSD; epitope peptide) [compound 453]	1311	2383	–
493 (SLLTEVETMIRNEWGCRCNDSSD; epitope peptide) [compound 493]	1104	2320	–
500 (SCLTEVGSLLTEV; epitope peptide) [compound 500]	1066	1610	–
435 (SLLTEVETP; epitope peptide) [compound 435]	899	–	2380
499 (CSLLTEVGMSCLCEC; epitope peptide) [compound 499]	1066	–	2101
623 (SLLTEVETCIRNEWGCRCNDSSD; epitope peptide) [compound 623]	800	1992	–
632 (SLLTEVETPIRNEWGCRCVDSSD; epitope peptide) [compound 632]	775	–	2366
708 (SLLTEVETPIRNEGGCRCNDSSD; epitope peptide) [compound 708]	708	2486	–
356 (SLLTEVETPIRNEWGCRCNDSDD; epitope peptide) [compound 356]	1553	–	2181
354 (SLLTEVGCSLLTEV; epitope peptide) [compound 354]	1555	2511	–
628 (SLLTEVETPIRNEWGCRCMDSSD; epitope peptide) [compound 628]	786	–	2470
689 (SLLTEVETPIRNEWGCRCGDSSD; epitope peptide) [compound 689]	724	–	2343
215 (CSLLTEVETCLTEVETPIRNEWGSRC; epitope peptide) [compound 215]	958	2328	–
576 (SLLTEVETPIFNEWGCRCNDSSD; epitope peptide) [compound 576]	862	2176	–
